In patent US20220211783A1, “GMCI AND DDRI COMBINATION THERAPY FOR TREATING CANCER” (Candel Therapeutics, Inc., priority 2019, published 2022):

Key:
lung cancer cells = assay: Double-stranded DNA breaks by H2AX-Ser139 staining, confocal microscopy; format: cell-based; conditions: 6 hours after addition of AZD1775 (IC50 concentration) and/or GCV
[1] = tested on: lung cell line e.g., A549, A427, H2030; assay: Cell viability assay (vital dye such as Presto Blue, fluorescence) of GMCI, AZD1775 and their combination; format: cell-based

C=CCn1c(=O)c2cnc(Nc3ccc(N4CCN(C)CC4)cc3)nc2n1-c1cccc(C(C)(C)O)n1 [AZD1775]
Double-stranded DNA breaks (lung cancer cells): occur
H2AX(Ser139) staining (lung cancer cells; versus untreated cells): large increase in H2AX staining
cell viability (fluorescence normalized to samples that received no treatment) ([1]; Day 4, AZD1775 at its IC50 concentration or half of its IC50 concentration, GMCI = AdV-tk 100 MOI + ganciclovir 5 μg/ml): cytotoxic activity
EC50 ([1]; stated as the concentration used in the lung cell line, half the IC50 given as 40 nM, read-out: EC50 concentration of the drug): 80 nM
